# Laboratory results reported in patent US20250034109A1, “SALTS, COCRYSTALS, PHARMACEUTICAL COMPOSITIONS THEREOF, AND METHODS OF TREATMENT INVOLVING THE SAME” (Servier Pharmaceuticals LLC, priority 2023, published 2025).
# How the values were obtained:
# [1] = Solubility of the drug substance (general statement); assay type: physicochemical
# mutant IDH1 = details: biochemical and cellular assays; cited from earlier work
# mutant IDH2 = details: biochemical and cellular assays; cited from earlier work
compound,measurement,setting,value
"C[C@@H](Nc1nc(N[C@H](C)C(F)(F)F)nc(-c2cccc(Cl)n2)n1)C(F)(F)F [Compound 1, 6-(6-chloropyridin-2-yl)-N^2,N^4-bis((R)-1,1,1-trifluoropropan-2-yl)-1,3,5-triazine-2,4-diamine]",solubility,[1],poorly soluble
same,inhibitor of mutant IDH1 protein,mutant IDH1,inhibitor
same,inhibitor of mutant IDH2 protein,mutant IDH2,inhibitor
